# Results published in the supplement of paper PMC11451515.
# Columns and labels:
# SEM cells [1] = assay: AUC of viability dose-response curve (% viability x log10 dose units); higher = less sensitive; conditions: 48 h
# In short: (§1)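 Medium-adapted leukemia cells in 1536-well plates, at 500 or 1000 cells/well, were incubated for 48 h at 37°C with library compounds in DMSO at 11 threefold doses from 47 μM to 0.79 nM. CellTiter-Glo One luminescence normalised per plate to DMSO and cell-free wells was fitted with a four-parameter log-logistic model over log10 doses. Area under the curve was integrated from this fit by trapezoidal rule, with curves beyond full viability scaled and failed quality-control curves removed.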
# P12-Ichikawa [2] = assay: as above; conditions: 48 h
# In short: as §1
# NOMO1 = assay: as above; conditions: 48 h
# In short: as §1
# SEM cells [3] = assay: cell viability relative to DMSO control; higher = less cytotoxic; conditions: 48 h
# In short: (§2)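 NOMO1 or SEM (500 cells/well) or P12-Ichikawa (1000 cells/well) leukemia cells were adapted for at least four passages in each medium. They were seeded in 1536-well plates (5 μl) and pin-dosed with library compounds in DMSO over an 11-point threefold series, 47 μM to 0.79 nM. CellTiter-Glo One luminescence was read after 48 h at 37°C. Viability is the per-plate percentage relative to DMSO wells, with cell-free wells as background.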
# P12-Ichikawa [4] = assay: as above; conditions: HPLM + 10% dialyzed FBS, 48 h
# In short: as §2
# [5] = RPMI 5 mM glucose + 10% dialyzed FBS
# [6] = HPLM + 10% dialyzed FBS, 0.000781 µM
# [7] = HPLM + 10% dialyzed FBS, 0.00234 µM
# [8] = HPLM + 10% dialyzed FBS, 0.00702 µM
# [9] = HPLM + 10% dialyzed FBS, 0.0211 µM
# [10] = HPLM + 10% dialyzed FBS, 0.0632 µM
# [11] = HPLM + 10% dialyzed FBS, 0.19 µM
# [12] = HPLM + 10% dialyzed FBS, 0.569 µM
# [13] = HPLM + 10% dialyzed FBS, 1.71 µM
# [14] = HPLM + 10% dialyzed FBS, 5.12 µM
# [15] = HPLM + 10% dialyzed FBS, 15.4 µM
# [16] = HPLM + 10% dialyzed FBS, 46.1 µM
structure (smiles),measurement,setting,value
CCc1cc(-c2n[nH]c(C)c2-c2ccc3c(c2)OCCO3)c(O)cc1O,AUC of viability dose-response curve,SEM cells [1]; HPLM + 10% dialyzed FBS,422
same,AUC of viability dose-response curve,SEM cells [1]; RPMI 5 mM glucose + 10% FBS,414
same,AUC of viability dose-response curve,SEM cells [1]; [5],418
same,AUC of viability dose-response curve,P12-Ichikawa [2]; HPLM + 10% dialyzed FBS,455
same,AUC of viability dose-response curve,P12-Ichikawa [2]; RPMI 5 mM glucose + 10% FBS,435
same,AUC of viability dose-response curve,P12-Ichikawa [2]; [5],444
same,AUC of viability dose-response curve,NOMO1; HPLM + 10% dialyzed FBS,450
same,AUC of viability dose-response curve,NOMO1; RPMI 5 mM glucose + 10% FBS,447
same,AUC of viability dose-response curve,NOMO1; [5],448
same,cell viability,SEM cells [3]; [6],98%
same,cell viability,SEM cells [3]; [7],123%
same,cell viability,SEM cells [3]; [8],137%
same,cell viability,SEM cells [3]; [9],117%
same,cell viability,SEM cells [3]; [10],128%
same,cell viability,SEM cells [3]; [11],124%
same,cell viability,SEM cells [3]; [12],126%
same,cell viability,SEM cells [3]; [13],111%
same,cell viability,SEM cells [3]; [14],111%
same,cell viability,SEM cells [3]; [15],32.9%
same,cell viability,SEM cells [3]; [16],36.2%
same,cell viability,"SEM cells [3]; RPMI 5 mM glucose + 10% FBS, 0.000781 µM",106%
same,cell viability,"SEM cells [3]; RPMI 5 mM glucose + 10% FBS, 0.00234 µM",123%
same,cell viability,"SEM cells [3]; RPMI 5 mM glucose + 10% FBS, 0.00702 µM",115%
same,cell viability,"SEM cells [3]; RPMI 5 mM glucose + 10% FBS, 0.0211 µM",127%
same,cell viability,"SEM cells [3]; RPMI 5 mM glucose + 10% FBS, 0.0632 µM",134%
same,cell viability,"SEM cells [3]; RPMI 5 mM glucose + 10% FBS, 0.19 µM",140%
same,cell viability,"SEM cells [3]; RPMI 5 mM glucose + 10% FBS, 0.569 µM",120%
same,cell viability,"SEM cells [3]; RPMI 5 mM glucose + 10% FBS, 1.71 µM",115%
same,cell viability,"SEM cells [3]; RPMI 5 mM glucose + 10% FBS, 5.12 µM",102%
same,cell viability,"SEM cells [3]; RPMI 5 mM glucose + 10% FBS, 15.4 µM",31.4%
same,cell viability,"SEM cells [3]; RPMI 5 mM glucose + 10% FBS, 46.1 µM",25.2%
same,cell viability,P12-Ichikawa [4]; 0.000781 µM,115%
same,cell viability,P12-Ichikawa [4]; 0.00234 µM,133%
same,cell viability,P12-Ichikawa [4]; 0.00702 µM,119%
same,cell viability,P12-Ichikawa [4]; 0.0211 µM,132%
same,cell viability,P12-Ichikawa [4]; 0.0632 µM,132%
same,cell viability,P12-Ichikawa [4]; 0.19 µM,135%
same,cell viability,P12-Ichikawa [4]; 0.569 µM,131%
same,cell viability,P12-Ichikawa [4]; 1.71 µM,135%
same,cell viability,P12-Ichikawa [4]; 5.12 µM,131%
same,cell viability,P12-Ichikawa [4]; 15.4 µM,96.7%
same,cell viability,P12-Ichikawa [4]; 46.1 µM,74.7%
CC[C@H]1OC(=O)[C@H](C)[C@@H](O[C@H]2C[C@@](C)(OC)[C@@H](O)[C@H](C)O2)[C@H](C)[C@@H](O[C@@H]2O[C@H](C)C[C@H](N(C)C)[C@H]2O)[C@](C)(O)C[C@@H](C)CN(C)[C@H](C)[C@@H](O)[C@]1(C)O,AUC of viability dose-response curve,SEM cells [1]; HPLM + 10% dialyzed FBS,458
same,AUC of viability dose-response curve,SEM cells [1]; RPMI 5 mM glucose + 10% FBS,458
same,AUC of viability dose-response curve,SEM cells [1]; [5],467
same,AUC of viability dose-response curve,P12-Ichikawa [2]; HPLM + 10% dialyzed FBS,458
same,AUC of viability dose-response curve,P12-Ichikawa [2]; RPMI 5 mM glucose + 10% FBS,452
same,AUC of viability dose-response curve,P12-Ichikawa [2]; [5],459
same,AUC of viability dose-response curve,NOMO1; HPLM + 10% dialyzed FBS,458
same,AUC of viability dose-response curve,NOMO1; RPMI 5 mM glucose + 10% FBS,419
same,AUC of viability dose-response curve,NOMO1; [5],446
same,cell viability,SEM cells [3]; [6],85.1%
same,cell viability,SEM cells [3]; [7],122%
same,cell viability,SEM cells [3]; [8],124%
same,cell viability,SEM cells [3]; [9],129%
same,cell viability,SEM cells [3]; [10],133%
same,cell viability,SEM cells [3]; [11],127%
same,cell viability,SEM cells [3]; [12],149%
same,cell viability,SEM cells [3]; [13],119%
same,cell viability,SEM cells [3]; [14],129%
same,cell viability,SEM cells [3]; [15],133%
same,cell viability,SEM cells [3]; [16],96.6%
Cn1ccc2cc3c(cc21)CCN3C(=O)Nc1cccnc1,AUC of viability dose-response curve,SEM cells [1]; HPLM + 10% dialyzed FBS,464
same,AUC of viability dose-response curve,SEM cells [1]; RPMI 5 mM glucose + 10% FBS,461
same,AUC of viability dose-response curve,SEM cells [1]; [5],461
same,AUC of viability dose-response curve,P12-Ichikawa [2]; HPLM + 10% dialyzed FBS,464
same,AUC of viability dose-response curve,P12-Ichikawa [2]; RPMI 5 mM glucose + 10% FBS,462
same,AUC of viability dose-response curve,P12-Ichikawa [2]; [5],463
same,AUC of viability dose-response curve,NOMO1; HPLM + 10% dialyzed FBS,460
same,AUC of viability dose-response curve,NOMO1; RPMI 5 mM glucose + 10% FBS,451
same,AUC of viability dose-response curve,NOMO1; [5],466
same,cell viability,SEM cells [3]; [6],100%
same,cell viability,SEM cells [3]; [7],113%
same,cell viability,SEM cells [3]; [8],132%
same,cell viability,SEM cells [3]; [9],116%
same,cell viability,SEM cells [3]; [10],123%
same,cell viability,SEM cells [3]; [11],158%
same,cell viability,SEM cells [3]; [12],140%
same,cell viability,SEM cells [3]; [13],127%
same,cell viability,SEM cells [3]; [14],125%
same,cell viability,SEM cells [3]; [15],137%
same,cell viability,SEM cells [3]; [16],59.8%
CCCCCCCCCCCCc1ccc([S+](=O)([O-])Nc2nncs2)cc1,AUC of viability dose-response curve,SEM cells [1]; HPLM + 10% dialyzed FBS,447
same,AUC of viability dose-response curve,SEM cells [1]; RPMI 5 mM glucose + 10% FBS,360
same,AUC of viability dose-response curve,SEM cells [1]; [5],415
same,AUC of viability dose-response curve,P12-Ichikawa [2]; HPLM + 10% dialyzed FBS,411
same,AUC of viability dose-response curve,P12-Ichikawa [2]; RPMI 5 mM glucose + 10% FBS,460
same,AUC of viability dose-response curve,P12-Ichikawa [2]; [5],451
same,AUC of viability dose-response curve,NOMO1; HPLM + 10% dialyzed FBS,390
same,AUC of viability dose-response curve,NOMO1; RPMI 5 mM glucose + 10% FBS,443
same,AUC of viability dose-response curve,NOMO1; [5],452
O=C(Nc1cccc(Br)c1)c1cccc([S+](=O)([O-])N2CCCCCC2)c1,AUC of viability dose-response curve,SEM cells [1]; HPLM + 10% dialyzed FBS,447
same,AUC of viability dose-response curve,SEM cells [1]; RPMI 5 mM glucose + 10% FBS,436
same,AUC of viability dose-response curve,SEM cells [1]; [5],441
same,AUC of viability dose-response curve,P12-Ichikawa [2]; HPLM + 10% dialyzed FBS,450
same,AUC of viability dose-response curve,P12-Ichikawa [2]; RPMI 5 mM glucose + 10% FBS,457
same,AUC of viability dose-response curve,P12-Ichikawa [2]; [5],464
same,AUC of viability dose-response curve,NOMO1; HPLM + 10% dialyzed FBS,462
same,AUC of viability dose-response curve,NOMO1; RPMI 5 mM glucose + 10% FBS,460
same,AUC of viability dose-response curve,NOMO1; [5],470
